Tests used:
Type in all cases: functional
Conditions in all cases: read-out: ED50 (the source's name)
[1] = Cytotoxicity against human RPMI cells
HCT-8 = experiment: Cytotoxicity against human HCT8 cells
KB = experiment: Cytotoxicity against human KB cells
P388 = experiment: Cytotoxicity against mouse P388 cells
A549 = experiment: Cytotoxicity against human A549 cells
TE-671 = experiment: Cytotoxicity against human TE671 cells

Measured: EC50

COC1=C[C@@H](C)[C@@H]2C[C@H]3O[C@@H](O[C@@H]4O[C@H](CO)[C@@H](O)[C@H](O)[C@H]4O)C[C@H]4C(C)=C(OC)C(=O)[C@H]([C@@]2(C)C1=O)[C@@]34C [PICRASINOSIDE B]
≤ 4 µg/mL: [1] | HCT-8 | KB | P388 | A549 | TE-671

COC1=C[C@@H](C)C2C[C@H]3O[C@@H](O[C@@H]4O[C@H](CO)[C@@H](O)[C@H](O)[C@H]4O)C[C@H]4[C@@H](C)[C@@H]5OCO[C@H]5[C@@H]([C@@]34C)[C@@]2(C)C1=O (stereo not given in full) [PICRASINOSIDE C]
≤ 4 µg/mL: [1] | HCT-8 | KB | P388 | A549 | TE-671

COC1=C[C@@H](C)[C@@H]2C[C@H]3O[C@@H](O[C@@H]4O[C@H](CO)[C@@H](O)[C@H](O)[C@H]4O)C[C@H]4[C@@H](C)[C@H](OC)[C@@H](OC(C)=O)[C@H]([C@@]2(C)C1=O)[C@@]34C [PICRASINOSIDE D]
≤ 4 µg/mL: [1] | HCT-8 | KB | P388 | A549 | TE-671

COC1=C[C@@H](C)[C@@H]2C[C@H]3O[C@@H](O[C@@H]4O[C@H](CO)[C@@H](O)[C@H](O)[C@H]4O)C[C@H]4[C@](C)(O)[C@H](OC)[C@@H](OC(C)=O)[C@H]([C@@]2(C)C1=O)[C@@]34C [PICRASINOSIDE E]
≤ 4 µg/mL: [1] | HCT-8 | KB | P388 | A549 | TE-671

COC1=C[C@@H](C)[C@@H]2C[C@H]3O[C@@H](O[C@@H]4O[C@H](CO)[C@@H](O)[C@H](O)[C@H]4O)C[C@H]4[C@](C)(O)[C@H](OC)[C@@H](O)[C@H]([C@@]2(C)C1=O)[C@@]34C [PICRASINOSIDE G]
≤ 4 µg/mL: [1] | HCT-8 | KB | P388 | A549

COC1=C[C@@H](C)[C@@H]2C[C@H]3O[C@@H](O[C@@H]4O[C@H](CO)[C@@H](O)[C@H](O)[C@H]4O)C[C@H]4[C@](C)(OC(C)=O)[C@@H]5OCO[C@H]5[C@H]([C@@]2(C)C1=O)[C@@]34C [PICRASINOSIDE H]
≤ 4 µg/mL: [1] | HCT-8 | KB | P388 | A549 | TE-671

Reference: ChEMBL document CHEMBL1158961, “Picrasinoside H, a new quassinoid glucoside, and related compounds from the stem wood of Picrasma ailanthoides” (1991)
